Experimental data published in patent US9688653B2, “Ethoxyphenyl thienyl compounds and methods for the treatment of bacterial infections” (Duke University, priority 2013, dated 2017).
pIC50: −log10 of the molar value.

Columns and labels:
[1] = test system: Bladder carcinoma 5637 cells; test: Cytotoxicity counterscreen, CellTiter Glo, 72 hr; assay type: cell-based, human
Method: B. Counterscreen: Cytotoxicity Screening for Potential Inhibitors of Bacterial Capsule Biogenesis.
Purpose: This cell-based assay measures the cytotoxicity of compounds in bladder carcinoma 5637 cells using luminescent cell viability assay readout.
Cytotoxicity assay: The cytotoxicity assay was performed as described in Section 6: Appendix. Hit cytotoxicity and the 50% toxic concentration (CC50) was determined and compared to the IC50 to calculate the selectivity index.
Assay Description: Cytotoxicity: Dose response testing (dose range=300-0.58 μM) established the hit cytotoxicity data. Compounds were plated in 384-well microplates in a stacked dose response format using the same doses used in the efficacy dose response. Bladder carcinoma 5637 cells were added to the compounds, and 72 hr later cell viability was measured using CellTiter Glo (38). Hit cytotoxicity and the 50% toxic concentration (TC50) was determined and compared to the IC50 to calculate the therapeutic index. Test compounds are serially diluted in a plate to plate matrix or stacked plate matrix. All 320 compounds in a source plate are diluted together resulting in a 10 point dose response dilution series. It is visualized as a serial dilution series proceeding vertically through a stack of plates with the high dose plate on top and the low dose plate on the bottom.
Control Drug: Hyamine was used as a positive cytotoxic control. All wells contained 0.5% DMSO.
Preparation of Bladder carcinoma 5637 cells: Cells are harvested and resuspended to 80,000 cells per ml in Complete DMEM/F12®.
Endpoint Read: Following the three day incubation period, the assay plates were equilibrated to room temperature for 30 min and an equal volume (30 μL) of Cell Titer-Glo® reagent (Promega Inc.) is added to each well using a WellMate™ (Matrix, Hudson, N.H.) and plates are incubated for an additional 10 min at room temperature. At the end of the incubation, luminescence is measured using a Perkin Elmer Envision™ multi-label reader (PerkinElmer, Wellesley, Mass.) with an integration time of 0.1 s.
Cytotoxicity. Testing was performed essentially as previously described. Concentration-response testing was performed over a range 0.58-300 μM in a […] well plate format. Bladder carcinoma 5637 cells (ATCC HTB-9) were added to the compounds, and 72 hrs later cell viability was measured using CellTiter Glo (Promega). The 50% toxic concentration (TC50) was determined and compared to the IC50 to calculate the therapeutic index. Hyamine was used as a positive cytotoxic control. All wells contained 0.5% DMSO.

E. coli K1 strain UTI89 [2] = test: microbe, parasite or virus in culture
Source text: The ability of the […] to bind to bacterial capsule, infect, and lyse E. coli UT189 was used as the primary assay to identify the effects of screened compounds on bacterial capsule formation. The phenotypic end-point assay measured the fluorescence generated by cellular processing of Alamar Blue as a direct indicator of cell viability. A total of […] compounds were screened using the primary assay. […] Hits were further evaluated using […] secondary assays for alternative measurement of compound-induced reduction in bacterial capsule formation (secondary assays 1 and 2) and specificity (secondary assays 3 and 4). Confirmed actives with an SI>5 were further investigated and subjected to chemical optimization, followed by secondary assay evaluation. Secondary assays more closely characterized the ability of the compounds to reduce bacterial capsule formation and can be used to examine the mechanism of action of the compounds. The combination of primary assay (to measure capsule reduction), counter assay (for general eukaryotic cell toxicity) and secondary assay (to measure reduction in capsule formation and specificity) were combined to allow a determination of probe efficacy, selectivity, and specificity.
A. Primary Assay: Screening for Inhibitors of Bacterial Capsule Biogenesis.
Primary assay: An end-point assay to measure the amount of K1 phage-induced bacterial cell lysis was employed to determine the compound effect on capsule biogenesis. K1 bacteriophage specifically binds the bacterial capsule during the initial stages of infection. Bacteria without capsule cannot be infected and lysed by the bacteriophage. […] A total of 338,740 compounds were screened at 100 μM in the primary screen Inhibition of phage lysis was calculated relative to the mean of the bacterial (positive) control on each microtiter plate. […] For calculation of S/B/Z value, and CV, the following formulae (in which SD stands for standard deviation) were used: S/B=mean signal/mean background; Z=1-3SD of sample+3SD of control mean of sample−mean of control; % CV=(SD mean signal/mean signal)×100.
IC50 values were calculated using a 4 parameter Levenburg-Marquardt algorithm, with the maximum and minimum locked at 0 and 100 respectively.
Primary assay: The primary assay was conducted in the 1,536 well plate format. Bacterial cultures of E. coli K1 strain UTI89 (cystitis isolate) and isogenic capsule mutant strains (as controls for phage infection) were grown and prepared at the screening center immediately prior to use. Overnight starting cultures of UTI89 were grown at 37° C., and inoculated into 1 liter of LB (starting OD600˜0.03), which was sufficient for screening 40 plates (including ˜10% waste) and ˜40,000 compounds as single points.
Control wells contained UTI89 (wt K1) with 0.5% DMSO as a simulated positive control; UTI89 with 0.5% DMSO and tetracycline for a negative growth control; and media plus vehicle control. 50 mL of LB Broth was inoculated with stock 150 μL E. coli UT189 and grown overnight at 37° C. The next day, cultures were diluted 1:75 in 1 L of LB Broth containing 0.5% DMSO. 3 μL of this culture was added to each plate well, and plates were incubated, inverted, at 37° C. for 2 hr. The K1F bacteriophage stock was diluted 1:8 in LB Broth containing 0.5% DMSO, and 1.5 μL of diluted phage (or media only) was added to the pre-plated test compound wells and appropriate control wells. The plates were centrifuged briefly, and then were incubated, inverted, at 37° C. for an additional 2 hr. Afterward, Alamar Blue reagent (Invitrogen, #DAL1100) was diluted 1:2 with LB broth and 1 μL was added to each plate well.

E. coli K1 strain UTI89 [3] = test: Secondary assay 2: T7 phage-mediated lysis assay; assay type: cell-based, Escherichia coli; settings: n = 2, read-out: T7 phage IC50
Source text: D. Secondary Assay 2: Screening for Inhibitors of Bacterial Capsule Biogenesis—T7 Lysis Inhibition
Purpose: This secondary assay measures the compound mechanistic specificity for inhibition of bacterial capsule formation and excludes inhibitors of phage replication using a different bacteriophage (T7). In this assay, an increase in phage-induced lysis correlates to a decrease in capsule formation.
Purpose: This secondary assay measures the compound mechanistic specificity for inhibition of bacterial capsule formation using a different bacterial phage (T7). In this assay, an increase in phage-induced lysis correlates to a decrease in capsule formation.
Assay Description: T7 phage-mediated lysis assay: This assay determined if the mechanism of action of the compound is inhibition of phage infectivity or replication. The T7 phage has a nearly identical genome to K1F, without encoding an endosialidase. Its cycle of replication is similar to that of K1F as well. However, T7 entry into E. coli is inhibited by K capsules. This secondary assay was conducted in the 96 well plate format. […] Compounds were added in quadruplicate to plates in a concentration dependent manner in the range of 100-0.39 μM, followed by addition of 100 μL of bacterial culture. 1% DMSO (final well concentration) was included. The plates were tape sealed and shaken vigorously for 1.5 hr. An initial OD600 reading was measured to identify compounds that cause growth retardation or bacterial killing in the absence of phage. Next, T7 phage (5 μL) was added to all of the test wells. The plates were resealed and shaken vigorously at 37° C., and measurements of OD600 for phage-mediated lysis were taken after 3 hr. True inhibitors of capsule yielded bacteria that were susceptible to T7 phage and lysed within 2 hr of the addition of phage. […] The positive control drug C7 (100 μM final well concentration) was used in this screen.
T7 phage counter assay. This secondary assay was performed as previously described and was used to distinguish compounds with phage inhibitory effects from true polysaccharide capsule inhibitors. […] Thus, the presence of a capsule inhibits T7-mediated lysis. In this assay, an increase in phage-induced lysis correlates to a decrease in capsule formation. True inhibitors of capsule yielded bacteria that were susceptible to T7 phage and lysed within 2 hr of the addition of phage. […] The positive control molecule C7 (100 μM final well concentration) was used in this screen.

[4] = read-out: K1 phage IC50, second round of synthetic analogues, n = 3
[5] = second round of synthetic analogues
[6] = read-out: K1 phage IC50, first round of synthetic analogues, n = 3
[7] = first round of synthetic analogues
[8] = read-out: K1 phage IC50, purchased analogue series, n = 3

SMILES	pIC50 [1]	pIC50 (E. coli K1 strain UTI89 [2]; [4])	pIC50 (E. coli K1 strain UTI89 [3]; [5])	pIC50 (E. coli K1 strain UTI89 [2]; read-out: K1 phage IC50 (inhibition of K1 capsule formation))	pIC50 (E. coli K1 strain UTI89 [2]; [6])	pIC50 (E. coli K1 strain UTI89 [3]; [7])	pIC50 (E. coli K1 strain UTI89 [2]; [8])	pIC50 (E. coli K1 strain UTI89 [3]; purchased analogue series)
CCOc1ccc(-c2cc(NC(=O)c3c(F)cccc3C(F)(F)F)c(C(=O)O)s2)cc1 [compound 56643017]	4.21	4.28	> 5.30					
CCCCOc1ccc(-c2cc(NC(=O)c3ccc(Br)o3)c(C(=O)O)s2)cc1 [CID 56643021]	4.36		> 6.20	6.07				
O=C(O)c1sc(-c2ccc(C(F)(F)F)cc2)cc1NC(=O)c1c(F)cccc1F [compound 53470440]	4.35				4.63	5.42		
Cc1ccc(-c2cc(NC(=O)c3cc4ccccc4o3)c(C(=O)O)s2)cc1 [compound 53470436]	4.02				< 4.00	4.70		
O=C(O)c1sc(-c2ccccc2)cc1NC(=O)C1CCCCC1 [compound 16393057]	3.94						< 4.00	4.19
CCCc1ccc(-c2cc(NC(=O)c3c(F)cccc3F)c(C(=O)O)s2)cc1 [compound 56643016]	4.26	5.58	> 6.20					
CC(C)c1ccc(-c2cc(NC(=O)c3ccc(Br)s3)c(C(=O)O)s2)cc1 [compound 53470432]	4.48				< 4.00	5.56		
CCOc1ccc(-c2cc(NC(=O)c3c(F)cc(F)cc3F)c(C(=O)O)s2)cc1 [compound 56643006]	4.12	4.70	> 5.30					
Cc1c(C(=O)Nc2cc(-c3ccccc3)sc2C(=O)O)oc2ccccc12 [compound 17546661]	4.31						< 4.00	4.48
O=C(Nc1cc(-c2ccc(C(F)(F)F)cc2)sc1C(=O)O)c1ccc(Br)o1 [compound 53470416]	4.32				4.91	5.59		
CCOc1ccc(-c2cc(NC(=O)c3ccc(Br)s3)c(C(=O)O)s2)cc1 [compound 53470415]	4.30				4.77	5.48		
O=C(Nc1cc(-c2ccc(C(F)(F)F)cc2)sc1C(=O)O)c1cc2ccccc2o1 [compound 53470417]	4.14				< 4.00	5.14		
CC(C)c1ccc(-c2cc(NC(=O)c3ccc(Br)o3)c(C(=O)O)s2)cc1 [compound 53470420]	4.30				5.51	5.90		
O=C(Nc1cc(-c2ccc(C(F)(F)F)cc2)sc1C(=O)O)c1cccc(F)c1 [compound 53470418]	4.45				< 4.00	4.89		
O=C(Nc1cc(-c2ccc(OCC(F)(F)F)cc2)sc1C(=O)O)c1ccc(Br)o1 [compound 56643003]	4.30	5.31	6.20					
O=C(Nc1cc(-c2ccccc2)sc1C(=O)O)c1cc2ccccc2o1 [compound 17548073]	3.78						< 4.00	5.17
O=C(Nc1cc(-c2ccccc2)sc1C(=O)O)c1ccc(Cl)s1 [compound 17547200]	4.15						< 4.00	4.82
O=C(O)c1sc(-c2ccc(OCCCC(F)(F)F)cc2)cc1NC(=O)c1c(F)cc(F)cc1F [compound 56643015]	4.26	5.26	> 5.90					
CC(C)(C)c1ccc(-c2cc(NC(=O)c3cccc(F)c3)c(C(=O)O)s2)cc1 [compound 53470435]	4.68				4.70	5.57		
COc1ccc(-c2cc(NC(=O)c3cc4ccccc4o3)c(C(=O)O)s2)cc1 [compound 53470443]	4.35				< 4.00	5.08		
CC(C)c1ccc(-c2cc(NC(=O)c3c(F)cccc3F)c(C(=O)O)s2)cc1 [compound 53470439]	4.49				5.15	5.90		
